Assay results reported in patent US20240409536A1, “COMPOUNDS AND METHODS FOR MODULATING SPLICING” (REMIX THERAPEUTICS INC., priority 2021, published 2024).
Where a name gives a salt, the structure may show the parent alone.

What was measured:
HTT mRNA [1] = assay: Splicing RT-qPCR assay, HTT canonical (CJ) and alternative (AJ) junction mRNA; type: cell-based; conditions: Homo sapiens, A673 or K562 cells, 24 hours; for IC50: decrease in canonical junction mRNA; for AC50: increase in alternative junction mRNA
Outline: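 Canonical and alternative junction mRNAs measured by cell-lysate one-step RT-qPCR, normalized to PPIA in A673 or GAPDH/GUSB in K562. Cells received compound for 24 h at 37 °C, 5% CO2, 11-point 3-fold series from 10 uM final top dose, DMSO at most 0.25%.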

HTT mRNA [2] = assay: Gene panel canonical junction qPCR assay, HTT CJ mRNA decrease; type: cell-based, human; conditions: Homo sapiens, canonical junction qPCR, read-out: HTT IC50 (decrease in CJ mRNA levels)
Outline: (§1)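 IC50 values describe loss of canonical-junction transcript, fitted by 4-parameter logistic to percent response derived from fixed ΔCt windows. Read-out: RT-qPCR on lysates of compound-treated K562 or A673 cells, probes overlapping the exon junction, ΔΔCt versus housekeeping gene and DMSO control.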

SMN2 mRNA = assay: Gene panel canonical junction qPCR assay, SMN2 CJ mRNA decrease; type: cell-based, human; conditions: Homo sapiens, canonical junction qPCR, read-out: SMN2 IC50 (decrease in CJ mRNA levels)
Outline: as §1

| IC50 (HTT mRNA [1]) [nM] | IC50 (HTT mRNA [2]) [nM] | IC50 (SMN2 mRNA) [nM] | Compound | AC50 (HTT mRNA [1]) [nM] |
| --- | --- | --- | --- | --- |
| 100 to 1000 | 100 to 1000 | < 100 | Cc1cn2cc(NC(=O)c3ccc(N4CCNC(C)C4)c4ccnnc34)cc(F)c2n1 (stereo not drawn) [Compound 128] | 100 to 1000 |
| 1000 to 10000 | 1000 to 10000 | < 100 | Cc1cn2cc(NC(=O)c3ccc(N4CCC(N5CCCC5)C4)c4ccnnc34)cc(F)c2n1 (stereo not drawn) [Compound 133] | 1000 to 10000 |
| > 10000 | > 10000 | 100 to 1000 | Cc1cn2cc(NC(=O)c3ccc(N4C[C@H]5C[C@@H]4C5N(C)C)c4ccnnc34)cc(F)c2n1 (stereo partly drawn) [Compound 155] | > 10000 |
| 1000 to 10000 | 1000 to 10000 | < 100 | CNC1CCN(c2ccc(C(=O)Nc3cc(F)c4nc(C)cn4c3)c3nc(C)ccc23)C1 (stereo not drawn) [Compound 196, N-{8-fluoro-2-methylimidazo[1,2-a]pyridin-6-yl}-2-methyl-5-[3-(methylamino)pyrrolidin-1-yl]quinoline-8-carboxamide 2,2,2-trifluoroacetate] | 1000 to 10000 |
| 1000 to 10000 | 1000 to 10000 | < 100 | Cc1cn2cc(NC(=O)c3ccc(N4CCNCC4)c4cccnc34)cc(F)c2n1 [Compound 165, N-{8-fluoro-2-methylimidazo[1,2-a]pyridin-6-yl}-5-(piperazin-1-yl)quinoline-8-carboxamide] | 100 to 1000 |
| > 10000 | > 10000 | > 10000 | Cc1cn2cc(NC(=O)c3ccc(N4CCNCC4)c4nnccc34)cc(F)c2n1 [Compound 166, N-(8-fluoro-2-methylimidazo[1,2-a]pyridin-6-yl)-8-(piperazin-1-yl)cinnoline-5-carboxamide 2,2,2-trifluoroacetate] | > 10000 |
| 100 to 1000 | 100 to 1000 | < 100 | Cc1cn2cc(NC(=O)c3ccc(N4CCN[C@H](C)C4)c4ccnnc34)cc(F)c2n1 [Compound 146] | 100 to 1000 |
| 1000 to 10000 | 1000 to 10000 | < 100 | CCN1CCC(c2ccc(C(=O)Nc3cc(F)c4nc(C)cn4c3)c3nnccc23)CC1 [Compound 141] | 1000 to 10000 |
| 1000 to 10000 | 1000 to 10000 | < 100 | Cc1cn2cc(NC(=O)c3ccc(N4CCNCC4)c4ccnnc34)cc(C#N)c2n1 [Compound 167, N-{8-cyano-2-methylimidazo[1,2-a]pyridin-6-yl}-5-(piperazin-1-yl)cinnoline-8-carboxamide trifluoroacetic acid salt] | > 10000 |
| 1000 to 10000 | 1000 to 10000 | < 100 | CC[C@@H]1CN(c2ccc(C(=O)Nc3cc(F)c4nc(C)cn4c3)c3nnccc23)CCN1 [Compound 151] | 1000 to 10000 |

Further lines, the compound ahead of its results:

| Compound | IC50 (HTT mRNA [1]) [nM] | IC50 (HTT mRNA [2]) [nM] | IC50 (SMN2 mRNA) [nM] | AC50 (HTT mRNA [1]) [nM] |
| --- | --- | --- | --- | --- |
| CCNC1CCN(c2ccc(C(=O)Nc3cc(F)c4nc(C)sc4c3)c3nnccc23)CC1 [Compound 221, 5-[4-(ethylamino)piperidin-1-yl]-N-(4-fluoro-2-methyl-1,3-benzothiazol-6-yl)cinnoline-8-carboxamide] | 1000 to 10000 | 1000 to 10000 | < 100 | 1000 to 10000 |
| COc1cnc2c(C(=O)Nc3cc(F)c4nc(C)cn4c3)ccc(N3C[C@@H](C)N[C@@H](C)C3)c2n1 [Compound 223] | 100 to 1000 | 100 to 1000 | < 100 | 100 to 1000 |
| CCc1cc(NC(=O)c2ccc(N3CCNCC3)c3ccnnc23)nn2cc(C)nc12 [Compound 168, N-{8-ethyl-2-methylimidazo[1,2-b]pyridazin-6-yl}-5-(piperazin-1-yl)cinnoline-8-carboxamide trifluoroacetic acid salt] | > 10000 | > 10000 | 100 to 1000 | > 10000 |
| COc1cnc2c(C(=O)Nc3cc(F)c4nc(C)cn4c3)ccc(N3CCNCC3)c2n1 [Compound 225, N-{8-fluoro-2-methylimidazo[1,2-a]pyridin-6-yl}-2-methoxy-8-(piperazin-1-yl)quinoxaline-5-carboxamide] | > 10000 | > 10000 | < 100 | > 10000 |
| COc1ccc2c(N3CCNCC3)ccc(C(=O)Nc3cc(F)c4nc(C)cn4c3)c2n1 [Compound 169, N-{8-fluoro-2-methylimidazo[1,2-a]pyridin-6-yl}-2-methoxy-5-(piperazin-1-yl)quinoline-8-carboxamide] | 1000 to 10000 | 1000 to 10000 | < 100 | 1000 to 10000 |
| CN[C@@H]1CCN(c2ccc(C(=O)Nc3cc(F)c4nc(C)cn4c3)c3nccnc23)C1 (single isomer, unassigned) [Compound 193, N-{8-fluoro-2-methylimidazo[1,2-a]pyridin-6-yl}-8-[3-(methylamino)pyrrolidin-1-yl]quinoxaline-5-carboxamide] | > 10000 | > 10000 | < 100 | > 10000 |
| Cc1cn2cc(NC(=O)c3ccc(N4CCNC5(COC5)C4)c4nccnc34)cc(F)c2n1 [Compound 372] | > 10000 | > 10000 | 100 to 1000 | > 10000 |
| O=C(Nc1cn[nH]c1)c1ccc(N2CCNCC2)c2ccnnc12 [Compound 126] | > 10000 | > 10000 | > 10000 | > 10000 |
| Cc1cn2cc(NC(=O)c3ccc(N4CC(C)(C)NC(C)(C)C4)c4nccnc34)cc(F)c2n1 [Compound 219, N-{8-fluoro-2-methylimidazo[1,2-a]pyridin-6-yl}-8-(3,3,5,5-tetramethylpiperazin-1-yl)quinoxaline-5-carboxamide] | 1000 to 10000 | 1000 to 10000 | < 100 | 1000 to 10000 |
| COc1ncc2c(N3C[C@@H](C)N[C@@H](C)C3)ccc(C(=O)Nc3cn4cc(C)nc4c(OC)n3)c2n1 [Compound 378] | 100 to 1000 | 100 to 1000 | < 100 | 100 to 1000 |
| CCNC1CCN(c2ccc(C(=O)Nc3cc(F)c4nc(C)cn4c3)c3nccnc23)CC1 [Compound 191, 8-[4-(ethylamino)piperidin-1-yl]-N-{8-fluoro-2-methylimidazo[1,2-a]pyridin-6-yl}quinoxaline-5-carboxamide] | 100 to 1000 | 100 to 1000 | < 100 | 100 to 1000 |
| COc1cnc2c(N3CCNCC3)ccc(C(=O)Nc3cc(F)c4nc(C)cn4c3)c2n1 [Compound 207, N-{8-fluoro-2-methylimidazo[1,2-a]pyridin-6-yl}-3-methoxy-8-(piperazin-1-yl)quinoxaline-5-carboxamide; bis(trifluoroacetic acid)] | 100 to 1000 | 100 to 1000 | < 100 | 1000 to 10000 |
| COc1cnc2c(N3CCC(N(C)C)CC3)ccc(C(=O)Nc3cc(F)c4nc(C)cn4c3)c2n1 [Compound 206, 8-[4-(dimethylamino)piperidin-1-yl]-N-{8-fluoro-2-methylimidazo[1,2-a]pyridin-6-yl}-3-methoxyquinoxaline-5-carboxamide; trifluoroacetic acid] | 100 to 1000 | 100 to 1000 | < 100 | 100 to 1000 |
| Cc1cn2cc(NC(=O)c3ccc(C4CCNC5(CC5)C4)c4nccnc34)cc(F)c2n1 (stereo not drawn) [Compound 375] | 1000 to 10000 | 1000 to 10000 | < 100 | 1000 to 10000 |
| Cc1cn2cc(NC(=O)c3ccc(N(C)[C@@H]4C[C@H]5CC[C@@H](C4)N5)c4ccnnc34)cc(F)c2n1 [Compound 156] | > 10000 | > 10000 | 100 to 1000 | > 10000 |
| COCCOc1ccc2c(N3CCNCC3)ccc(C(=O)Nc3cc(F)c4nc(C)cn4c3)c2n1 [Compound 173, N-{8-fluoro-2-methylimidazo[1,2-a]pyridin-6-yl}-2-(2-methoxyethoxy)-5-(piperazin-1-yl)quinoline-8-carboxamide] | > 10000 | > 10000 | < 100 | > 10000 |
| Cc1cn2cc(NC(=O)c3ccc(N4CCNCC4)c4ccnnc34)nc(C)c2n1 [Compound 164, N-{2,8-dimethylimidazo[1,2-a]pyrazin-6-yl}-5-(piperazin-1-yl)cinnoline-8-carboxamide 2,2,2-trifluoroacetate] | > 10000 | > 10000 | < 100 | > 10000 |
| CNC1CCN(c2ccc(C(=O)Nc3cc(F)c4nc(C)cn4c3)c3nccnc23)C1 (stereo not drawn) [Compound 190, N-{8-fluoro-2-methylimidazo[1,2-a]pyridin-6-yl}-8-[3-(methylamino)pyrrolidin-1-yl]quinoxaline-5-carboxamide] | 1000 to 10000 | 1000 to 10000 | < 100 | 1000 to 10000 |
| Cc1ccc2c(N3C[C@@H](C)N[C@@H](C)C3)ccc(C(=O)Nc3cc(F)c4nc(C)cn4c3)c2n1 [Compound 214, 5-[(3R,5S)-3,5-dimethylpiperazin-1-yl]-N-{8-fluoro-2-methylimidazo[1,2-a]pyridin-6-yl}-2-methylquinoline-8-carboxamide] | 100 to 1000 | 100 to 1000 | < 100 | 1000 to 10000 |
| Cc1cn2cc(NC(=O)c3ccc(N4CCNC5(CC5)C4)c4nccnc34)cc(F)c2n1 [Compound 218, 8-{4,7-diazaspiro[2.5]octan-7-yl}-N-{8-fluoro-2-methylimidazo[1,2-a]pyridin-6-yl}quinoxaline-5-carboxamide] | > 10000 | > 10000 | < 100 | 1000 to 10000 |
